Tested on: immobilized GST-tagged bait protein domains
Test: ProP-PD phage selections (HD2 P8, sublibraries, HD2 P3, HD1 P8) with NGS and confidence level
Assay type: binding, human
Details: for p3_HD2 confidence / p3_HD2 mean counts / p3_HD2 count proportions: HD2 P3 library
[1] = bait MAP1LC3A_ATG8 (Q9H492 2-121), HD2 library, benchmark motif instance recovered in the ProP-PD selection (TRUE/FALSE)
[2] = bait MAP1LC3B_ATG8 (Q9GZQ8 2-119), HD2 library, benchmark motif instance recovered in the ProP-PD selection (TRUE/FALSE)
[3] = bait PABP-B_PABP__P11940_544_623, HD2 library, confidence level (1-4) of best matching selected peptide
[4] = bait PABP-B_PABP__P11940_544_623, HD2 library, specificity score of best matching selected peptide
[5] = bait PABP-B_PABP__P11940_544_623, HD2 library, whether the validated benchmark motif instance was recovered in the ProP-PD selection (TRUE/FALSE)
[6] = bait NEDD4_WW_4 (P46934 890-928), HD2 library, benchmark motif instance recovered in the ProP-PD selection (TRUE/FALSE)
[7] = bait PEX14_Pex14__O75381_16_84, HD2 library, whether the validated benchmark motif instance was recovered in the ProP-PD selection (TRUE/FALSE)
[8] = library HD2, bait EPS15_EH__P42566_121_215, whether the validated benchmark motif instance was recovered in the ProP-PD selection (TRUE/FALSE)
[9] = bait CALM1_EF-hand__P0DP23_2_149, library HD2, benchmarking set of validated motif instances, TRUE = motif instance recovered in the ProP-PD selection
[10] = HD2 library, bait TLN1_PTB__Q9Y490_309_401, known motif instance of the benchmarking set found (TRUE) or not found (FALSE) among selected peptides
[11] = bait CRK_SH3_1_P46108_124_198, confidence level (4 = High, 2-3 = Medium, 1 = Low)
[12] = bait CRK_SH3_1_P46108_124_198, mean NGS counts over replicate selections
[13] = bait CRK_SH3_1_P46108_124_198, mean proportion of NGS counts
[14] = library HD2, bait VASP_EVH1__P50552_1_114, validated benchmark motif instance, in_library_check TRUE, TRUE/FALSE = instance recovered in ProP-PD selection
[15] = HD2 library, bait CALM1_EF-hand__P0DP23_2_149, benchmark motif instance, in_library_check FALSE, in_library_coverage 0
[16] = HD2 library, bait TNKS_TANK-peptide-bind__O95271_174_649, known motif instance of the benchmarking set found (TRUE) or not found (FALSE) among selected peptides
[17] = bait CRK_SH3_1_P46108_124_198, library HD2, benchmarking set of validated motif instances, TRUE = motif instance recovered in the ProP-PD selection

QGSWVELHFSNNGNGG
motif_found [1]: TRUE | best_confidence (bait MAP1LC3A_ATG8 (Q9H492 2-121), HD2 library, confidence level (1-4) of best matching peptide): 3 | best_specificity (bait MAP1LC3A_ATG8 (Q9H492 2-121), HD2 library, specificity score of best matching peptide): 1 | motif_found [2]: TRUE | best_confidence (bait MAP1LC3B_ATG8 (Q9GZQ8 2-119), HD2 library, confidence level (1-4) of best matching peptide): 3 | best_specificity (bait MAP1LC3B_ATG8 (Q9GZQ8 2-119), HD2 library, specificity score of best matching peptide): 1

QLSPNAKEFVYNGGGS
best_confidence [3]: 4 | best_specificity [4]: 1 | motif_found [5]: TRUE

QMPADTPPPAYLPPEDPM
motif_found [6]: FALSE

QQGTSDAWVDQFTRPVNTS
motif_found [7]: FALSE

QQHEGPSLNPFDEEDLSSP
motif_found [8]: FALSE

QQKQRQKHFNRQIPAAASLIQTAWRCYAAENPDSSTWKIYIRKAPRSHTLLSPSPKPKKSVVVKKKKFKLDKDNGVTPGEKMLTVPHITCDPPEERRLDHFSVDGYDSSVRKSPTLLEVSMPHFMRTNSFAEDLDLEGETLLTPITHISQLREHHRATIKVIRRMQYFVAKKKFQQARKP [KCNQ1]
motif_found [9]: FALSE

QQQLNWKQDSNPLYKSAITTTI
motif_found [10]: FALSE

QQVPAPPLPAKKNLPT
p3_HD2 confidence [11]: 4 | p3_HD2 mean counts [12]: 120.7 | p3_HD2 count proportions [13]: 0.00436

QRTNPSPTNPFSSDLQKTF
motif_found [8]: FALSE

QSGSGGIFPPPPDDDIYDG
motif_found [14]: FALSE

QSKPLVDIDLISFDDD
HD2_nc confidence (bait CLTC_Clathrin-propeller__Q00610_1_364, HD2 P8 nucleocytoplasmic sublibrary, confidence level (4 = High, 2-3 = Medium, 1 = Low)): 4 | HD2_nc mean counts (bait CLTC_Clathrin-propeller__Q00610_1_364, HD2 P8 nucleocytoplasmic sublibrary, mean NGS counts over replicate selections): 25.67 | HD2_nc count proportions (bait CLTC_Clathrin-propeller__Q00610_1_364, HD2 P8 nucleocytoplasmic sublibrary, mean proportion of NGS counts): 0.0005729

RARAKWDTANNPLYKEATSTFT
motif_found [10]: FALSE

RCTSPGGSYGHLSIGTMSPSLG
motif_found (bait SUFU_SUFU__Q9UMX1_1_484, HD2 library, whether the validated benchmark motif instance was recovered in the ProP-PD selection (TRUE/FALSE)): FALSE

RCVNSRQIRPPPDGSDCTSDLA [RAD54L 690-697]
motif_found (HD2 library, bait TNKS_TANK-peptide-bind__O95271_174_649, benchmark motif instance, in_library_check FALSE, in_library_coverage 0): FALSE

RDAEAHPWLSDYDDLTSAT
motif_found [7]: FALSE

REMEEKSALIIQKHWRGYRERKNFHQQRQSL [IQCB1 391-407]
motif_found [15]: FALSE

RGRGDGQE
motif_found [16]: FALSE

RHLPPPLPSKTPPPPP
p3_HD2 confidence [11]: 3 | p3_HD2 mean counts [12]: 27.0 | p3_HD2 count proportions [13]: 0.0009618

RKKWKQSVRLISLCQRLSR,KWKQSVRLISLCQRLS [DAPK1]
motif_found [9]: FALSE

RKNTKSMNFDNPVYRKTTEEED [LRP8 860-867]
motif_found (HD2 library, bait TLN1_PTB__Q9Y490_309_401, benchmark motif instance, in_library_check FALSE, in_library_coverage 0): FALSE

RKQEEVSAIIIQRAYRRYLLKQKVKKVSSIY [SCN2A 1909-1925]
motif_found [15]: FALSE

RKQYRKVLYCVVIIQKNYRAFLLRRRFLHLKKAA [MYO10 766-785]
motif_found [15]: FALSE

RKRAKV
motif_found (bait KPNA4_Arm (O00629 68-487), HD2 library, benchmark motif instance recovered in the ProP-PD selection (TRUE/FALSE)): FALSE

RKTLVSMPPLPGLDLKGSESPE [RFX5]
motif_found (bait ANKRA2_Ank__Q9H9E1_142_313, library HD2, benchmarking set of validated motif instances, TRUE = motif instance recovered in the ProP-PD selection): FALSE

RLRHALWPSLPDLHRVLGQYLRDT
motif_found (library HD2, bait ANKRA2_Ank__Q9H9E1_142_313, motif instance NOT in library (in_library_check FALSE, in_library_coverage 0)): FALSE

RMATAEDLPLPPPPALEDL
motif_found [14]: FALSE

RMSQIKRLLSE
motif_found (bait PTK2_Focal-AT__Q05397_891_1050, HD2 library, whether the validated benchmark motif instance was recovered in the ProP-PD selection (TRUE/FALSE)): FALSE

RPPDDAVFDIITDEELCQIQ
motif_found [1]: FALSE

RRKWQKTGNAVRAIGRLSSM [MYLK]
motif_found [9]: FALSE

RRMPAANLIQAAWRLYSTD [KCNQ4 338-356]
motif_found [15]: FALSE

RRRFLHLKKAAIVFQKQLRGQIARRVYRQLLAEK [MYO10 789-808]
motif_found [15]: FALSE

RRRWKLSFSIVSLCNHLTR [DAPK2]
motif_found [9]: FALSE

RSEIGHSPPPAYTPMS
motif_found [6]: TRUE | best_confidence (bait NEDD4_WW_4 (P46934 890-928), HD2 library, confidence level (1-4) of best matching peptide): 2 | best_specificity (bait NEDD4_WW_4 (P46934 890-928), HD2 library, specificity score of best matching peptide): 1

RVTENNLQTPNPTASEFIPKGGSTSRL
motif_found [5]: FALSE

SAEPRPRTRSNPEGAEDRAVGA
motif_found [16]: FALSE

SALSPNAKEFIFPNMQ
best_confidence [3]: 3 | best_specificity [4]: 1 | motif_found [5]: TRUE

SARILKEYNPFEEEDEEEE
motif_found [8]: FALSE

SASYPPYQATGPPNTSYMPGMPGGI [TSG101]
motif_found (bait CEP55_EABR__Q53EZ4_160_217, library HD2, benchmarking set of validated motif instances, TRUE = motif instance recovered in the ProP-PD selection): FALSE

SDLFPAPPQIPSRPVRIPPG [DNM2]
motif_found [17]: FALSE

SDRTAAPGNPFRAKSEESE
motif_found [8]: FALSE

SEEGDNESRSAGDGTDWEKEDQ
motif_found [16]: FALSE

SETMSMPQLTVPASGS
HD2 confidence (bait ANKRA2_Ank__Q9H9E1_142_313, library HD2 P8): 4

SFGGGFADF [EPS15]
motif_found (bait AP2B1_adaptin__P63010_700_937, library HD2, benchmarking set of validated motif instances, TRUE = motif instance recovered in the ProP-PD selection): TRUE

SFLSRRAARTIQTAFRQYRMNKNFERLRSSA [IQSEC2]
motif_found [9]: FALSE

SFNPDAQVFVPIGSQD
best_confidence [3]: 3 | best_specificity [4]: 1 | motif_found [5]: TRUE

SGETQTTSPAIPWAAF
HD confidence (bait AP2B1_adaptin__P63010_700_937, HD1 P8 library, confidence level (4 = High, 2-3 = Medium, 1 = Low)): 4 | HD mean counts (bait AP2B1_adaptin__P63010_700_937, HD1 P8 library, mean NGS counts over replicate selections): 10.25 | HD count proportions (bait AP2B1_adaptin__P63010_700_937, HD1 P8 library, mean proportion of NGS counts): 0.003472

SGGSDEAPPKPSRPGYPSPR [PTK2]
motif_found [17]: FALSE

SHLGTYGVFTNAAFDPSP----
motif_found [10]: FALSE

SIDAHTFDFETIPHPNIEQ
motif_found [1]: FALSE | motif_found [2]: FALSE

SILEQTDMEAVEALVCMSSWGQRS
motif_found (bait SIN3A_PAH__Q96ST3_295_383, HD2 library, whether the validated benchmark motif instance was recovered in the ProP-PD selection (TRUE/FALSE)): FALSE

SKSSNASWPPEFQPGVPWKGIQNIDPES
motif_found [5]: FALSE

SKYITTIAGVMTLS
motif_found (library HD2, bait CALM1_EF-hand__P0DP23_2_149, motif instance NOT in library (in_library_check FALSE, in_library_coverage 0)): FALSE

SLEQSERRRRLLELQKSKRLDYVNHARRLA,ERRRRLLELQKSKRLDYVNHARR,PRLSQYKSKYSSLEQSERRRRLLELQKSKRLDYVNHARR,EQSERRRRLLELQKSKRLDYVNHARR (UniProt O95149 42-64, looked up, fragment) [SNUPN 42-64]
motif_found (HD2 library, bait KPNB1_Heat_1_Q14974_1_485, benchmark motif instance, in_library_check FALSE, in_library_coverage 0): FALSE

SLMTDEPGLDNPAYVSSAEDGQ
motif_found [10]: FALSE

SLWTALSNFSMPSFPG
HD2-1mM_CaCl confidence (bait CALM1 EF-hand (P0DP23, 2-149), HD2 library selection with 1mM_CaCl, confidence level (4 = High, 2 or 3 = Medium, 1 = Low)): 4 | HD2 confidence (bait CALM1 EF-hand (P0DP23, 2-149), HD2 library selection, confidence level (4 = High, 2 or 3 = Medium, 1 = Low)): 4

SNGSSINWPPEFHPGVPWKGLQNIDPEN
motif_found [5]: FALSE

SNPFMTGAPTGQFPTG
best_specificity (library HD2, bait EPS15_EH__P42566_121_215, best matching peptide): 1 | best_confidence (library HD2, bait EPS15_EH__P42566_121_215, confidence level of best matching peptide (4 High, 2-3 Medium, 1 Low)): 3 | motif_found [8]: TRUE

SNTNRFQVSVINENHE
HD2_cytoplasm confidence (bait OXSR1___O95747_434_527, HD2 P8 cytoplasm sublibrary, confidence level (4 = High, 2-3 = Medium, 1 = Low)): 4

SPALTAPPPAYATLGPRP
motif_found (bait NEDD4_WW_4_P46934_890_928, HD2 library, whether the validated benchmark motif instance was recovered in the ProP-PD selection (TRUE/FALSE)): FALSE | motif_found (library HD2, bait YAP1_WW_1_P46937_169_207, validated benchmark motif instance, in_library_check TRUE, TRUE/FALSE = instance recovered in ProP-PD selection): FALSE

SPANSFHFKEAWKHAIQKAKHMPDPWA [EEF2K]
motif_found [9]: FALSE

From article PMC8769072, “Proteome‐scale mapping of binding sites in the unstructured regions of the human proteome” (Molecular Systems Biology, 2022)
